{"source": "patent US12276667B2", "about": "“Isolation and characterization of the nuclear proteome” (Altius Institute for Biomedical Sciences, priority 2018, dated 2025)", "tested_on": "IKZF1", "assay": "Nuclear proteome by mass spectrometry (DIA) after cell treatment with thalidomide", "format": "cell-based", "settings": "cells treated with thalidomide; FIG. 14", "description": "First, cells of interest are isolated. This is done by harvesting, homogenizing, washing, and then pelleting the cells of interest. The pellet is then resuspended in a buffer A not comprising polycations (e.g., no spermidine or spermine). NP40 detergent solution is then added to isolate nuclei and cells are spun and are pelleted. Optionally, prior to salt extraction, the pellet is treated with MNase at 37° C. for 5 minutes and is quenched with EDTA. The pellet is resuspended in buffer A and […] NaCl, and then is incubated at 4° C. for 30 minutes. The insoluble chromatin is pelleted for later analysis. The supernatant is used for further analysis.\n400 ul of 01.% PPS is added to the nuclear pellet of EXAMPLE 1, which is then sonicated at a setting output of 5 for 30 seconds and a protein concentration is determined using A280 reading. The sample is then boiled at 99 C for 5 minutes, is allowed to cool at room temperature, and is then briefly spun down. DTT is added for a final concentration of 5 mM, and is incubated at 60° C. for 30 minutes. Next, IAA is added for a final concentration of 15 mM, and is incubated at room temperature in the dark for 30 minutes. […]\nData were acquired on a ThermoFisher QExactive-HF instrument operating in DIA mode. […] Peptide quantification was performed using EncyclopeDIA software. […]", "data": [{"smiles": "O=C1CCC(N2C(=O)c3ccccc3C2=O)C(=O)N1", "note": "(stereo not shown) [thalidomide]", "values": [{"measurement": "pharmacological degradation of IKZF1 after cell treatment", "result": "degraded"}]}]}
